pIC50: −log10 of the molar value.
The compounds below were run against T1, p70S6K (Homo sapiens, UniProt P23443, T412E) (assay: p70S6 Kinase Assay (Luciferase-Coupled Chemiluminescent Kinase assay, LCCA)). Settings: human p70S6 kinase domain residues 1-421, T412E; 5 μM ATP; read-out: p70S6K IC50.
T1 construct: human p70S6 kinase domain residues 1-421, containing a T412E mutation; made in house
T1 sequence (P23443 1-421 T412E): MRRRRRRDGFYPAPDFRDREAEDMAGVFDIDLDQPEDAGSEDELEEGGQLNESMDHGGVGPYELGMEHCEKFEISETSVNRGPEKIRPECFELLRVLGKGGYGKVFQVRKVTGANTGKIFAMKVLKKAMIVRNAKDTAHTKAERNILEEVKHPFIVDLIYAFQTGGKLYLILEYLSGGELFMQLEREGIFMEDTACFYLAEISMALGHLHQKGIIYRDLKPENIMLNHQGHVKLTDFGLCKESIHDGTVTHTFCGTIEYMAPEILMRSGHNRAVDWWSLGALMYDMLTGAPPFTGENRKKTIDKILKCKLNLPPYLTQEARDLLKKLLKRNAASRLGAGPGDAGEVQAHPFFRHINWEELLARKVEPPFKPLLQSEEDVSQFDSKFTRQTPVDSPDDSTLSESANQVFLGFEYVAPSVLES
Format: biochemical
How it was run: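 Luciferase-coupled chemiluminescence measured percent ATP remaining after the 2 h kinase reaction at ambient temperature, with ATP near the kinase's KM. Ten inhibitor concentrations were tested. IC50 was obtained from a Hill-equation fit.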
Compound `C[C@H](Nc1nc(N)nc(N)c1C#N)C(=O)Nc1cccc(C(F)(F)F)c1` [Example 89, N^2-(2,6-diamino-5-cyanopyrimidin-4-yl)-N-[3-(trifluoromethyl)phenyl]-L-alaninamide] has a pIC50 of less than 5.70.
Work on `CNc1nc(NCC(=O)Nc2cccc(C(F)(F)F)c2)c(C#N)c(SC)n1` [Example 65, N^2-[5-cyano-2-(methylamino)-6-(methylthio)pyrimidin-4-yl]-N-[3-(trifluoromethyl)phenyl]glycinamide] yielded a pIC50 of 5.70 to 6.30.
`CSc1nc(NC(C)=O)nc(SCC(=O)Nc2cccc(C(F)(F)F)c2)c1C#N` [Example 41, 2-{[2-(acetylamino)-5-cyano-6-(methylthio)pyrimidin-4-yl]thio}-N-[3-(trifluoromethyl)phenyl]acetamide] gave a pIC50 of 6.30 to 7.30.
Compound `CCOc1nc(N)nc(N[C@@H](CCCN2CCOCC2)C(=O)Nc2cccc(C(F)(F)F)c2)c1C#N` [Example 168, N~2~-[2-amino-5-cyano-6-(ethyloxy)pyrimidin-4-yl]-5-morpholin-4-yl-N-[3-(trifluoromethyl)phenyl]-L-norvalinamide] has a pIC50 of less than 5.70.
Work on `CSc1nc(N)nc(N(C)N(C)C(=O)Nc2cccc(C(F)(F)F)c2)c1C#N` [Example 93, 2-[2-amino-5-cyano-6-(methylthio)pyrimidin-4-yl]-1,2-dimethyl-N-[3-(trifluoromethyl)phenyl]hydrazinecarboxamide] yielded a pIC50 of less than 5.70.
In the case of `CSc1nc(N)nc(SCC(=O)Nc2cc(C(F)(F)F)ccc2Cl)c1C#N` [Example 55, 2-{[2-amino-5-cyano-6-(methylthio)pyrimidin-4-yl]thio}-N-[2-chloro-5-(trifluoromethyl)phenyl]acetamide], the pIC50 was 5.70 to 6.30.
In the case of `CSc1nc(N(C)C)nc(NCC(=O)Nc2cccc(C(F)(F)F)c2)c1C#N` [Example 71, N^2-[5-cyano-2-(dimethylamino)-6-(methylthio)pyrimidin-4-yl]-N-[3-(trifluoromethyl)phenyl]glycinamide], the pIC50 was less than 5.70.
For `CSc1nc(N)nc(N[C@@H](C)C(=O)Nc2cc(N)cc(C(F)(F)F)c2)c1C#N` [Example 94, N^2-[2-amino-5-cyano-6-(methylthio)pyrimidin-4-yl]-N-[3-amino-5-(trifluoromethyl)phenyl]-L-alaninamide], the pIC50 was less than 5.70.
In the case of `CSc1nc(N)nc(N[C@@H](C)C(=O)Nc2cccc(C(F)(F)F)c2)c1C#N` [Example 60, N^2-[2-amino-5-cyano-6-(methylthio)pyrimidin-4-yl]-N-[3-(trifluoromethyl)phenyl]-L-alaninamide], the pIC50 was 5.70 to 6.30.
`CSc1nc(N)nc(N(C)CC(=O)Nc2cccc(C(C)C)c2)c1C#N` [Example 110, N^2-[2-amino-5-cyano-6-(methylthio)pyrimidin-4-yl]-N^2-methyl-N-[3-(1-methylethyl)phenyl]glycinamide] gave a pIC50 of less than 5.70.
`Cc1nc2oc(C(=O)Nc3cccc(C(F)(F)F)c3)c(N)c2c(C)c1N` [Example 97, 3,5-diamino-4,6-dimethyl-N-[3-(trifluoromethyl)phenyl]furo[2,3-b]pyridine-2-carboxamide] gave a pIC50 of less than 5.70.
For `CSc1nc(N)nc(SCc2nc3ccc(C(F)(F)F)cc3[nH]2)c1C#N` [Example 63, 2-amino-4-(methylthio)-6-({[6-(trifluoromethyl)-1H-benzimidazol-2-yl]methyl}thio)pyrimidine-5-carbonitrile], the pIC50 was 5.70 to 6.30.
In the case of `CSc1nc(N)nc(NC2(C(=O)Nc3cccc(C(F)(F)F)c3)CC2)c1C#N` [Example 73, 1-{[2-amino-5-cyno-6-(methylthio)pyrimidin-4-yl]amino}-N-[3-(trifluoromethyl)phenyl]cyclopropanecarboxamide], the pIC50 was less than 5.70.
For `CSc1nc(N)nc(N[C@@H](C)C(=O)Nc2cc(C(=O)O)cc(C(F)(F)F)c2)c1C#N` [Example 145], the pIC50 was 5.70 to 6.30.
In the case of `CSc1nc(N)nc(N[C@@H](CCCNS(C)(=O)=O)C(=O)Nc2cccc(C(F)(F)F)c2)c1C#N` [Example 198, N~2~-[2-amino-5-cyano-6-(methylthio)pyrimidin-4-yl]-N~5~-(methylsulfonyl)-N-[3-(trifluoromethyl)phenyl]-L-ornithinamide], the pIC50 was less than 5.70.
With `CCOc1nc(N)nc(N[C@@H](CCCNC(=N)N)C(=O)Nc2cccc(C(F)(F)F)c2)c1C#N` [Example 152, N~2~-[2-amino-5-cyano-6-(ethyloxy)pyrimidin-4-yl]-N-[3-(trifluoromethyl)phenyl]-L-argininamide] the pIC50 was less than 5.70.
Work on `COCCNCCC[C@H](Nc1nc(N)nc(SC)c1C#N)C(=O)Nc1cccc(C(F)(F)F)c1` [Example 144, N~2~-[2-amino-5-cyano-6-(methylthio)pyrimidin-4-yl]-N~5~-[2-(methyloxy)ethyl]-N-[3-(trifluoromethyl)phenyl]-L-omithinamide] yielded a pIC50 of 5.70 to 6.30.
`CSc1nc(N)nc(N[C@@H](CCCCN(C)C)C(=O)Nc2cccc(C(F)(F)F)c2)c1C#N` [Example 171, N~2~-[2-amino-5-cyano-6-(methylthio)pyrimidin-4-yl]-N~6~,N~6~-dimethyl-N-[3-(trifluoromethyl)phenyl]-L-lysinamide] was tested, and the pIC50 was less than 5.70.
For `CCOc1nc(N)nc(N[C@@H](CCCCN(C)C)C(=O)Nc2cccc(C(F)(F)F)c2)c1C#N` [Example 156, N~2~-[2-amino-5-cyano-6-(ethyloxy)pyrimidin-4-yl]-N~6~,N~6~-dimethyl-N-[3-(trifluoromethyl)phenyl]-L-lysinamide], the pIC50 was less than 5.70.
`CCOC(=O)CN(NC(=O)Nc1cccc(C(F)(F)F)c1)c1nc(N)nc(SC)c1C#N` [Example 95, ethyl[1-[2-amino-5-cyano-6-(methylthio)pyrimidin-4-yl]-2-({[3-(trifluoromethyl)phenyl]amino}carbonyl)hydrazino]acetate] showed a pIC50 of less than 5.70.
In the case of `CSc1nc(N)nc(N(CCN(C)C)CC(=O)Nc2cccc(C(F)(F)F)c2)c1C#N` [Example 87, N^2-[2-amino-5-cyano-6-(methylthio)pyrimidin-4-yl]-N^2-[2-(dimethylamino)ethyl]-N-[3-(trifluoromethyl)phenyl]glycinamide], the pIC50 was less than 5.70.
In the case of `CSc1cc(SCC(=O)Nc2cccc(C(F)(F)F)c2)nc(N)n1` [Example 48, 2-{[2-amino-6-(methylthio)pyrimidin-4-yl]thio}-N-[3-(trifluoromethyl)phenyl]acetamide], the pIC50 was 6.30 to 7.30.
With `CCOc1nc(N)nc(N[C@@H](C)C(=O)Nc2cc(C(=O)NCCN3CCOCC3)cc(C(F)(F)F)c2)c1C#N` [Example 159, 3-({N-[2-amino-5-cyano-6-(ethyloxy)pyrimidin-4-yl]-L-alanyl}amino)-N-(2-morpholin-4-ylethyl)-5-(trifluoromethyl)benzamide] the pIC50 was less than 5.70.
For `CSc1nc(N)nc(N[C@@H](CCCCNC(=O)OC(C)(C)C)C(=O)Nc2cccc(C(F)(F)F)c2)c1C#N` [Example 103, N^2-[2-amino-5-cyano-6-(methylthio)pyrimidin-4-yl]-N-6-{[(1,1-dimethylethyl)oxy]carbonyl}-N-[3-(trifluoromethyl)phenyl]-L-lysinamide], the pIC50 was less than 5.70.
Compound `CSc1nc(N)nc(N[C@@H](C)C(=O)Nc2cccc(C(=O)N3CCN(C)CC3)c2)c1C#N` [Example 82, N^2-[2-amino-5-cyano-6-(methylthio)pyrimidin-4-yl]-N-{3-[(4-methylpiperazin-1-yl)carbonyl]phenyl}-L-alaninamide] has a pIC50 of less than 5.70.
`CCOc1nc(N)nc(N[C@@H](CCCNC(C)=O)C(=O)Nc2cccc(C(F)(F)F)c2)c1C#N` [Example 186, N~5~-acetyl-N~2~-[2-amino-5-cyano-6-(ethyloxy)pyrimidin-4-yl]-N-[3-(trifluoromethyl)phenyl]-L-ornithinamide] was tested, and the pIC50 was less than 5.70.
With `CSc1nc(N)nc(SCC(=O)Nc2cc(C(F)(F)F)cc(C(F)(F)F)c2)c1C#N` [Example 77, 2-{[2-amino-5-cyano-6-(methylthio)pyrimidin-4-yl]thio}-N-[3,5-bis(trifluoromethyl)phenyl]acetamide] the pIC50 was less than 5.70.
`CSc1nc(N)nc(N2CCC[C@H]2C(=O)Nc2cccc(C(F)(F)F)c2)c1C#N` [Example 67, (S)-1-[2-amino-5-cyano-6-(methythio)pyrimidin-4-yl]-N-[3-(trifluoromethyl)phenyl]prolinamide] was tested, and the pIC50 was 5.70 to 6.30.
With `COc1nc(N)nc(N[C@@H](C)C(=O)Nc2cc(C(=O)NCCN(C)C)cc(C(F)(F)F)c2)c1C#N` [Example 190, 3-({N-[2-amino-5-cyano-6-(methyloxy)pyrimidin-4-yl]-L-alanyl}amino)-N-[2-(dimethylamino)ethyl]-5-(trifluoromethyl)benzamide] the pIC50 was less than 5.70.
`COc1nc(N)nc(N[C@@H](CN2CCOCC2)C(=O)Nc2cccc(C(F)(F)F)c2)c1C#N` [Example 192, N~2~-[2-amino-5-cyano-6-(methyloxy)pyrimidin-4-yl]-3-morpholin-4-yl-N-[3-(trifluoromethyl)phenyl]-L-alaninamide] was tested, and the pIC50 was less than 5.70.
With `CCOc1nc(N)nc(N[C@@H](CCC(=O)OCc2ccccc2)C(=O)Nc2cccc(C(F)(F)F)c2)c1C#N` [Example 165, phenylmethyl N~2~-[2-amino-5-cyano-6-(ethyloxy)pyrimidin-4-yl]-N-[3-(trifluoromethyl)phenyl]-L-apha-glutaminate] the pIC50 was less than 5.70.
In the case of `CNc1nc(N)nc(SCC(=O)Nc2cccc(C(F)(F)F)c2)c1C#N` [Example 61, 2-{[2-amino-5-cyano-6-(methylamino)pyrimidin-4-yl]thio}-N-[3-(trifluoromethyl)phenyl]acetamide], the pIC50 was 5.70 to 6.30.
Compound `CSc1nc(N)nc(N[C@@H](CCCN2CCOCC2)C(=O)Nc2cccc(C(F)(F)F)c2)c1C#N` [Example 143, N~2~-[2-amino-5-cyano-6-(methylthio)pyrimidin-4-yl]-5-morpholin-4-yl-N-[3-(trifluoromethyl)phenyl]-L-norvalinamide] has a pIC50 of 6.30 to 7.30.
Compound `C[C@@H](C(=O)Nc1cccc(C(F)(F)F)c1)N(C)c1nc(N)nc([S+](C)[O-])c1C#N` (stereo partly drawn) [Example 118, N^2-[2-amino-5-cyano-6(methylsulfinyl)pyrimidin-4-yl]-N^2-methyl-N-[3-(trifluoromethyl)phenyl]-L-alaninamide] has a pIC50 of less than 5.70.
`CSc1nc(N)nc(NNC(=O)Nc2cccc(C(F)(F)F)c2)c1C#N` [Example 64, 2-[2-amino-5-cyano-6-(methylthio)pyrimidin-4-yl]-N-[3-(trifluoromethyl)phenyl]hydrazinecarboxamide] gave a pIC50 of 5.70 to 6.30.
